These results are taken from patent publication US9593069B2, “Cyclohexane-1,3-diones for use in the treatment of amyotrophic lateral sclerosis” (Northwestern University, priority 2009, dated 2017).

The structures appear in SMILES notation. Values after ≈ are worked out from the molar mass of the structure shown. Like-named read-outs stand apart in the source and are kept apart here. Peptide text beside a SMILES is read from it. * marks the point of attachment. Cbz = O=C(OCc1ccccc1)*

The test system of data set [1] is PC12 cells that express mutant G93A SOD1. Nature of the data set: High throughput cytotoxicity protection assay (PC12 Protection Assay). Format: cell-based. An excerpt:
Cultured cells are utilized to conduct high throughput assays for compounds that protect against mutant SOD1-induced cytotoxicity. Two assays are used: first, in the cytotoxicity protection assay, compounds are screened for their ability to protect cells from the cytotoxic effects of aggregated mutant SOD1, irrespective of mechanism of drug action. Second, in the protein aggregation assay, compounds are screened for their ability to reduce aggregation of mutant SOD1. The high throughput cytotoxicity protection assay is the primary screen and compounds active in the primary screen (and their analogs) move forward into the secondary screen for protein aggregation.
(§1) The high throughput cytotoxicity protection assay was carried out in PC12 cells that express mutant G93A SOD1 as a YFP fusion protein from a doxycycline-inducible promoter (Matsumoto et al., J. Cell. Biol. 2005, 171, 75). […] This idea was tested by examining the sensitivity of PC12 cells to SOD1 aggregates in the presence and absence of proteasome inhibitor MG132. PC12 cells expressing no SOD1, wild type SOD1, G85R SOD1 or G93A SOD1 were grown with or without MG132 (FIG. 1). Cells expressing no SOD1, wild type SOD1 and G85R SOD1 were relatively insensitive to MG132, with an IC50 of approximately 400 nM. […] In these cells, protein aggregation was detected after 24 h and loss of cell viability was detected at approximately 48 h. […] The ability of protein aggregates to induce cell death was examined by treating G93A SOD1-expressing cells with MG132 for 24 h, removing the MG132 by washing and assaying cell viability after another 24 h. Because the loss of cell viability was similar following MG132 removal (FIG. 1, part C), it is likely that mutant SOD1 aggregates contribute directly to cytotoxicity in PC12 cells.
(§2) PC12 cells expressing G93A SOD1 were treated with 100 nM MG132 with or without co-treatment with geldanamycin or radicicol. […] Statistical analysis of the data produced a Z′ value of 0.55, which would predict good performance as a positive control in a high throughput screen (Zhang et al., J. Biomol. Screen 1999, 4(2), 67-73).

Data set [2] has as its system primary cortical neurons. The data set is described as follows: Neuronal penetration assay (protection from MG132 toxicity). Format: cell-based. As to conditions: for Different from control at 5 SD*: primary cortical neurons, toxic dose of MG132, 5 SD = Standard Deviation (5σ). As for the experimental part:
Neurons are a highly differentiated cell type, and it has been commonly observed that many chemical structures are unable to penetrate into these cells. In many embodiments, a drug used to treat a neurodegenerative disease should desirably penetrate into neurons.
A neuronal penetration assay was developed as follows. […] In order to determine if this compound could protect primary cortical neurons from MG132 toxicity primary cortical neurons were treated with a toxic dose of MG132 together with various concentrations of 5-(3,5-bis(trifluoromethyl)phenyl)cyclohexane-1,3-dione. […] Analogs of 5-(3,5-bis(trifluoromethyl)phenyl)cyclohexane-1,3-dione were then prepared and tested to determine whether chemical modifications would lead to a compound with neuronal cell penetrating ability. […] As summarized in Table 2 below, these analogs also retained protective activity against mutant SOD1 toxicity.

Data set [3] is described as follows: In vivo pharmacological properties.
Data set [4] relates to PC12 cells expressing G85R SOD1. Nature of the data set: Mutant SOD1 direct protein aggregation assay. Type of data set: cell-based. An excerpt: Compounds that are active in the above assay could theoretically protect against mutant SOD1-induced cytotoxicity through a number of mechanisms, including the following: 1) Compounds could nonspecifically block or reverse protein aggregation via chaperone induction, as observed for radicicol and geldanamycin 2) Compounds could block or reverse the aggregation of a specific aggregated protein form 3) Compounds could interfere with an event downstream of protein aggregation that plays a critical role in mutant SOD1-induced cytotoxicity (e.g., proteasome function). 4) Compounds could act directly on SOD1 in a manner that prevents mutant SOD1 aggregation. These possibilities were tested using an assay that directly measures protein aggregation. In addition, unlike the high throughput cytotoxicity protection assay, the protein aggregation assay is based on G85R SOD1; this broadens the scope of the screening strategy, and should eliminate compounds with highly specific activity (i.e., G93A SOD1 limited) against protein aggregation.
(§3) In PC12 cells that express wild-type SOD1, SOD1 was diffusely localized throughout the cell (Matsumoto et al., J. Cell. Biol 2005, 171(1), 75-85). […] Therefore, these effects are likely to be due to MG132-induced proteasome inhibition, and not due to an off-target effect of MG132.
(§4) The identification of a positive control is a crucial step in assay development. Thus, PC12 cells expressing G85R or G93A mutant SOD1 were treated with MG132 to induce protein aggregation, and then co-treated with candidate chemical suppressors of protein aggregation. […] Both compounds induce heat shock transcription factor HSF-1, which in turn induces the heat shock response (FIG. 4). Treatment with radicicol reduced the proportion of cells with aggregates from 75% to 25%, a sufficient difference to allow visual scoring for compounds with efficacy equal to or greater than radicicol.
To allow this assay to be used in a high-throughput manner, a Cellomics Arrayscan® high content microscopy system was used for screening and quantification. […]

The test system of data set [5] is PC12 cells expressing wild-type SOD1. Nature of the data set: Mutant SOD1 direct protein aggregation assay. Format: cell-based.
Description: as §3

Data set [6] relates to PC12 cells expressing G93A mutant SOD1. Nature of the data set: Mutant SOD1 direct protein aggregation assay. Type of data set: cell-based. The procedure:
as §2, §3, §4

The test system of data set [7] is PC12 cells expressing G93A SOD1. The data set is described as follows: MG132 sensitivity, cell survival by viability stain calcein-AM. As to conditions: for toxicity (cell survival): 100 nM. Type of data set: cell-based. As for the experimental part:
(§5) FIGS. 1A-C. Proteasome inhibition is selectively toxic to PC12 cells expressing mutant G93A SOD1. Cell survival was determined using the viability stain calcein-AM.
as §1

In data set [8] the test system is PC12 cells expressing no SOD1, wild type SOD1 and G85R SOD1. The description is as above. Format: cell-based. As to conditions: Rattus norvegicus, PC-12, read-out: IC50 (loss of cell viability). As for the experimental part: as §5, §1
The nature of data set [9]: Human metabolic potential. Type of data set: in vitro ADME. The procedure: (§6) Liver Cytochrome P450 (CYP450) enzymes are the major route for xenobiotic metabolism and microsomal and hepatocyte stability is the best predictor of pharmacokinetic half-life. Cross-species comparisons of metabolism in liver microsomes can predict potential issues with liver toxicity in humans. Selected active compounds are tested in liver microsomes from efficacy species (mouse), toxicity species (rat, dog, monkey), and humans for metabolic stability.

In data set [10] the test system is Caco-2. Nature of the data set: Caco-2 permeability. Format: in vitro ADME. As for the experimental part: High membrane permeability is required for effective GI absorption and optimal bioavailability. Passive permeability is typically assessed in the PAMPA artificial membrane assay (Kansy et al., J. Med. Chem. 2002, 45(8), 1712-1722). Cell-based permeability determinations using the Caco-2 cell assay are more resource intensive but more predictive of active transport or efflux in vivo (Artursson et al., Adv. Drug. Deliv. Rev. 2001, 46(1-3), 27-43). Caco-2 assays are performed as needed during SAR development.
For orientation: Caco-2 cells form a polarised layer with tight junctions and transporters.

Data set [11] in a line: Plasma stability. Type of data set: in vitro ADME. The procedure: Plasma stability of active compounds is assessed in efficacy species (mouse), toxicity species (rat, dog, monkey), and human cells.
Data set [12] can be described thus: Mouse metabolic potential. Format: in vitro ADME. As for the experimental part: as §6
The nature of data set [13]: Solubility. Type of data set: physicochemical. Conditions: aqueous solution. As for the experimental part:
Because compounds are stored in DMSO, it is necessary to determine aqueous solubility of initial hit compounds and their analogs. High solubility in aqueous solution is necessary for high GI absorption, bioavailability, and for chemical formulation. Compounds should be soluble in aqueous solution at >10 μg/ml. Solubility of >50 μg/ml is preferred.

[14] abbreviates: Rattus norvegicus, PC-12; read-out: PC12 Protection Assay (Average EC50).

For the compound `O=C1CC(=O)CC(C2CC2c2cc(C(F)(F)F)cc(C(F)(F)F)c2)C1` (stereo not drawn), the EC50 in data set [1] (setting [14]) is about 3500 nM. Also, the “Different from control at 5 SD*” value in data set [2] is “YES”.

For `CCCCCCCCCCC(=O)OC1=CC(=O)CC(c2cc(C(F)(F)F)cc(C(F)(F)F)c2)C1` (stereo not drawn), in data set [1] (setting [14]), the EC50 was about 1500 nM.

`CC(Oc1cc(C(F)(F)F)cc(C(F)(F)F)c1)C1CC(=O)CC(=O)C1` (stereo not drawn): the EC50 in [1] (Rattus norvegicus, PC-12, read-out: PC12 Protection Assay (Average EC50)) was about 4000 nM. Moreover, in data set [2], the “Different from control at 5 SD*” value is reported as “YES”.

Regarding `O=C1CC(=O)CC(c2cc(C(F)(F)F)cc(C(F)(F)F)c2)C1` [5-(3,5-bis(trifluoromethyl)phenyl)cyclohexane-1,3-dione], in data set [1] (Rattus norvegicus, PC-12; read-out: potency), the EC50 is about 1500 nM. Moreover, the “protection of cultured PC12 cells / protective activity against mutant SOD1 toxicity” value in data set [1] (toxic effects of MG132) is reported as “protects cultured PC12 cells from the toxic effects of MG132”. For the same compound, the half-life in data set [3] (blood) was about 3.5 h. Moreover, in data set [3] (in vivo), the “blood brain barrier penetration” value was “penetration of the blood brain barrier” and the “volume of distribution in vivo” value is “surprisingly small volume of distribution”. In addition, in data set [3] (in vivo, po), the oral availability entry was “good oral availability”. Also, in data set [2] (various concentrations, FIG. 6), the “protection of primary cortical neurons from MG132 toxicity” value is recorded as “no dose of this compound was effective in protecting the primary cortical neurons”.

Take `CC(C)C[C@@H](C=O)NC(=O)[C@H](CC(C)C)NC(=O)[C@H](CC(C)C)NC(=O)OCc1ccccc1` [MG132] (Cbz-Leu-Leu-Leu-aldehyde): the “cells containing protein aggregates after treatment” value in data set [4] (cells expressing G85R SOD1) is “up to 75%”. The “protein aggregation after treatment” value in [5] was “no aggregation was observed”. The “cells with protein aggregates following treatment” value in data set [6] (cells expressing G93A mutant SOD1) came out at 75%. The “toxicity (cell survival)” value is “no toxicity” in data set [7] (24 hr, any of the cell lines) and “selectively toxic to the G93A SOD1 cell line” in data set [7] (after 48 hours). For the same compound, in data set [7] (G93A SOD1 vs no SOD1, wild type SOD1, G85R SOD1 cells), the “sensitivity of G93A SOD1 cells relative to the other cell lines” value is “approximately 5 fold”. The IC50 in data set [7] (Rattus norvegicus, PC-12, read-out: IC50 (loss of cell viability)) was about 75 nM; in data set [8], about 400 nM.

Take `CC(C)C[C@H](NC(=O)[C@H](Cc1ccccc1)NC(=O)c1cnccn1)B(O)O` [bortezomib]: in data set [7], the “sensitivity of PC12 cell lines to proteasome inhibitor, compared with MG132” value is listed as “Qualitatively similar results”.

As to `O=C1CC(=O)CC(c2cc(C(F)(F)F)cc(C(F)(F)F)c2)C1` [drawing 215], the EC50 in data set [1] (setting [14]) is about 1500 nM.

For the compound `O=C1CC(=O)CC(c2cc(C(F)(F)F)cc(C(F)(F)F)c2)C1` [drawing 217], the “Human Metabolic Potential” value in data set [9] was “low”. The half-life in [9] (liver microsomes, read-out: Human Metabolic Potential T1/2) is over 3 h; in [12] (liver microsomes, read-out: Mouse Metabolic Potential T1/2), over 3 h. For the same compound, the Caco-2 predicted permeability result in data set [10] was “high predicted permeability”. In data set [10] (A − B), the Caco-2 A − B came to 38 ×10⁻⁶ cm/s. The “Plasma Stability” value in [11] is recorded as “medium”. Also, the “Mouse Metabolic Potential” value in [12] was “low”. In addition, in data set [1] (Rattus norvegicus, PC-12; read-out: Potency (EC50)), the EC50 was found to be 700 nM. Further, the concentration in solution in data set [13] (solubility) came to 500 µM (≈ 162 µg/mL).

Take `C[C@@H]1C[C@H]2O[C@@H]2/C=C\C=C\C(=O)Cc2c(Cl)c(O)cc(O)c2C(=O)O1` [radicicol]: the “suppression of MG132-induced mutant SOD1 aggregation” value in data set [4] (G93A or G85R SOD1 cells, MG132 co-treatment) is “aggregates are reduced”. For the same compound, in data set [4] (PC12 cells expressing G85R or G93A mutant SOD1, MG132 co-treatment, 75% without), the “proportion of cells with aggregates on co-treatment” value worked out at 25%. Besides, the “formation of protein aggregates” value in data set [6] (G93A SOD1 cells, 100 nM MG132) is recorded as “reduced formation of protein aggregates”. Besides, the “cell viability of G93A SOD1 cells under MG132” value is given as “increased cell viability in a dose-dependent manner” in data set [1] (co-treatment with 100 nM MG132) and “protects” in data set [1] (co-treatment with 100 nM MG132; listed as Radicicol).

What is called IC50 is the concentration that inhibits the measured activity by half. As usually defined, the solubility is how much of the substance goes into solution per volume. Low values mean little dissolved substance, high ones much dissolved substance.
